PMC9030622, “Investigation of an Allosteric Deoxyhypusine Synthase Inhibitor in P. falciparum” (Molecules, 2022)

Tests used:
[1] = biological target: T1, P. falciparum deoxyhypusine synthase (DHS) (Plasmodium falciparum, UniProt Q9GSW0); test: deoxyhypusine formation assay with purified recombinant PfDHS, GC/MS readout; partial (max […]) inhibition; type: biochemical
T1 construct: recombinant, truncated P. falciparum DHS, N-terminally histidine-tagged
T1 sequence (Q9GSW0 1-496): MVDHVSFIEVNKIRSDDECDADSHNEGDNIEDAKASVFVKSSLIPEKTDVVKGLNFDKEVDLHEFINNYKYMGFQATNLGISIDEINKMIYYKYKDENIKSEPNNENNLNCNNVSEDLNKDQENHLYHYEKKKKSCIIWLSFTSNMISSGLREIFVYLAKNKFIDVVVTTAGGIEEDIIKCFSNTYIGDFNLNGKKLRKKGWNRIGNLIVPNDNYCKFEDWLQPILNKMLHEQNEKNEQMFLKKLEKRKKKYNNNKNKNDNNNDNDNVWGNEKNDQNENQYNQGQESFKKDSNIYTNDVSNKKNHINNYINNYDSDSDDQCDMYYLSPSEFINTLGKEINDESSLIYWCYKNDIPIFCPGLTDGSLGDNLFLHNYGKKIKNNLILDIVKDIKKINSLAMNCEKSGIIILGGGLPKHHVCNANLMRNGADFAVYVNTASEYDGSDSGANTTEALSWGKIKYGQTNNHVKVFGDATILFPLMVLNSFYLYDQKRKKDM

[2] = biological target: T1, P. falciparum deoxyhypusine synthase (DHS); test: deoxyhypusine formation assay with purified recombinant PfDHS, GC/MS readout; type: biochemical

IC50 [1] [µM]	SMILES	IC50 [2] [µM]
0.34	O=C(Nc1cccc2[nH]ccc12)c1cc2ccc(Br)cc2s1 [6-bromo-N-(1H-indol-4yl)-1-benzothiophene-2-carboxamide]	–
–	O=C(O)c1cc(O)c2cccc(O)c2n1 [C, 4,8-Dihydroxyquinoline-2-carboxylic acid]	0.112
